Consider four compounds from ChEMBL document CHEMBL1151404, “Modification and evaluation of the potato disc assay and antitumor screening of euphorbiaceae seeds” (1982).

The structures appear in SMILES notation.

What all share (assay type): functional
Assay [1] concerns P388. As to the kind of experiment: Antitumor activity against mouse P388 cells xenografted mouse assessed as increase in life span relative to control.
For assay [2], the system named is Agrobacterium tumefaciens. Nature of the assay: Antitumor activity against Agrobacterium tumefaciens B6-induced tumor formation at 10 ug/disk after 12 days by potato disk assay. To be noted: B6, 288 h.
The subject of assay [3] is Agrobacterium tumefaciens. As to the kind of experiment: Antitumor activity against Agrobacterium tumefaciens B6-induced tumor formation at 5 ug/disk after 12 days by potato disk assay. To be noted: B6, 288 h.
The test system of assay [4] is Agrobacterium tumefaciens. As to the kind of experiment: Antitumor activity against Agrobacterium tumefaciens B6-induced tumor formation at 2.5 ug/disk after 12 days by potato disk assay. The conditions noted are these: B6, 288 h.
The test system of assay [5] is Agrobacterium tumefaciens. As to the kind of experiment: Antitumor activity against Agrobacterium tumefaciens B6-induced tumor formation at 1.5 ug/disk after 12 days by potato disk assay. To be noted: B6, 288 h.

Consider `CC[C@]1(O)C[C@H]2CN(CCc3c([nH]c4ccccc34)[C@@](C(=O)OC)(c3cc4c(cc3OC)N(C=O)[C@H]3[C@@](O)(C(=O)OC)[C@H](OC(C)=O)[C@]5(CC)C=CCN6CC[C@]43[C@@H]65)C2)C1` [VINCRISTINE], for which the T/C in assay [1] came out at 242%. Moreover, in assay [2], the inhibition at 10 µg/disc is -44%. Further, in assay [3], the inhibition at 5 µg/disc was -36%. Further, the inhibition at 2.5 µg/disc in assay [4] is -17%.

For `COc1ccc(C[C@H]2C(=O)N[C@@H](C)C(=O)N(C)[C@@H]3C(=O)N(C)[C@@H](Cc4ccc(O)c(c4)Oc4ccc(cc4)[C@@H]3O)C(=O)N[C@@H](C)C(=O)N[C@@H](C)C(=O)N2C)cc1` [BOUVARDIN], in assay [1], the T/C is 188%. Further, the inhibition at 10 µg/disc in assay [2] was -40%. For the same compound, the inhibition at 5 µg/disc in assay [3] was -15%. In addition, the inhibition at 2.5 µg/disc in assay [4] was determined as 14%.

In the case of `COC(=O)C[C@](O)(CCCC(C)(C)O)C(=O)O[C@@H]1C(OC)=C[C@]23CCCN2CCc2cc4c(cc2[C@H]13)OCO4` [OMACETAXINE MEPESUCCINATE], the T/C in assay [1] is given as 238%. Moreover, in assay [2], the inhibition at 10 µg/disc was -79%. The inhibition at 5 µg/disc in assay [3] was -64%. The inhibition at 2.5 µg/disc in assay [4] is -72%.

Consider `COc1cc2cc(c1Cl)N(C)C(=O)C[C@H](OC(=O)[C@H](C)N(C)C(=O)C(C)C)[C@]1(C)O[C@H]1[C@H](C)[C@@H]1C[C@@](O)(NC(=O)O1)[C@H](OC)/C=C/C=C(\C)C2OC` (some centres not stated) [TREWIASINE], for which the T/C in assay [1] is 168%. Further, in assay [2], the inhibition at 10 µg/disc is -100%. The inhibition at 1.5 µg/disc in assay [5] was -100%. The inhibition at 5 µg/disc in assay [3] is -100%. Also, in assay [4], the inhibition at 2.5 µg/disc was -100%.

By T/C is commonly meant the ratio of treated to control. The term inhibition denotes the relative decrease from the control value, in per cent.
